Reference: patent publication US8507545B2, “Cytotoxic T cell activator comprising EP4 agonist” (National University Corporation, Hamamatsu University …, priority 2007, dated 2013)

Experiments:
B16 melanoma cells = assay: Life-prolonging effect in melanoma-inoculated mice; type: in vivo, B6 mice; conditions: 10 animals in group
Experimental: 2×10^5 B16 melanoma cells were transplanted to B6 mice in the same manner as Example 3. On day 5 after transplantation, the right auricle of each B6 mouse was treated with each test substance (TRP-2 (10 μg for one side of each auricle), Compound A-(1) (20 μL of 100 μM solution for one side of each auricle) by the same method as Example 3. Ten days later, the left auricle was treated in the same manner, and the mice in each experimental group were examined for mortality. Three experimental groups were established: (1) a group undergoing TS alone, (2) a group undergoing TS followed by application of Compound A-(1), and (3) a group undergoing TS followed by application of TRP-2 and Compound A-(1) (10 animals in each group).

TRP-2-specific CTLs = assay: Activation of cytotoxic T cells in cervical lymph nodes after tape stripping (TRP-2 tetramer flow cytometry); type: in vivo, C57BL/6(B6) mice; conditions: for Ratio of TRP-2-specific CTLs: Example 1(1), cervical lymph nodes one week after application, relative to total mononucleocytes as 100
Experimental: (§1) The corneal layers of the auricles of C57BL/6(B6) mice were destroyed by repeating a stripping procedure using an adhesive tape in 10 cycles, and an antigen peptide or EP4 agonist was applied as a test substance. The antigen peptide used was a melanoma-specific antigen peptide (Accord K.K. Peptide Business Department; hereinafter abbreviated TRP-2) in solution in 70% ethanol; 10 μg was applied to one side of each auricle. The EP4 agonist used was 11α,15α,-dihydroxy-9-oxo-16-(3-methoxymethylphenyl)-17,18,19,20-tetranol-3,7-dithiaprost-13E-enoic acid (hereinafter abbreviated Compound A-(1)) in solution in a mixed solvent of acetone:olive oil=10:1; 20 μL of 100 μM solution was applied to one side of each auricle. One week after application of the test substance, the cervical lymph nodes were removed. The frequency of TRP-2-specific CTLs was determined relative to the total number of mononucleocytes in the cervical lymph nodes as 100 by a flowcytometric analysis (FACScaliber; Becton, Dickinson and Company.) with a tetramer (Medical & Biological Laboratories Co., Ltd.). Four experimental groups were established: (1) a group undergoing tape stripping (hereinafter abbreviated TS) alone, (2) a group undergoing TS followed by application of TRP-2, (3) a group undergoing TS followed by application of Compound A-(1), and (4) a group undergoing TS followed by application of TRP-2 and Compound A-(1).
Note that the melanoma-specific antigen peptide TRP-2 was synthesized on the basis of a partial sequence described in the aforementioned Non-patent Document 1 (SEQ ID NO. 1) (Accord K.K. Peptide Business Department).
The same procedures as Example 1(1) were followed except that the EP4 agonists used were 4-[(2-{(2R)-2-[(1E,3S)-4-(4-fluorophenyl)-3-hydroxybut-1-enyl]-5-oxopyrrolidin-1-yl}ethyl)sulfanyl]butanoic acid (hereinafter abbreviated Compound L-(1)) and 4-{[2-((1R,2R,3R)-3-hydroxy-2-{(1E,3S)-3-hydroxy-4-[3-(methoxymethyl)phenyl]but-1-enyl}-5-oxocyclopentyl)ethyl]sulfanyl}butanoic acid (hereinafter abbreviated Compound M-(1)); the action of each compound to activate cytotoxic T cells was evaluated. Four experimental groups were established: (1) a group undergoing TS alone, (2) a group undergoing TS followed by application of TRP-2, (3) a group undergoing TS followed by application of TRP-2 and Compound L-(1), and (4) a group undergoing TS followed by application of TRP-2 and Compound M-(1).

HSVgpB-specific CTLs = assay: Activation of cytotoxic T cells in cervical lymph nodes after tape stripping (HSVgpB pentamer flow cytometry); type: in vivo, C57BL/6(B6) mice; conditions: Example 1(3), TS followed by application of HSVgpB and the EP4 agonist
Experimental: as §1
The same procedures as Example 1(1) were followed except that the antigen peptide used was the herpes simplex virus-specific antigen HSV glycoprotein B (hereinafter abbreviated HSVgpB), and that a flowcytometric analysis with a pentamer (ProImmune Company) was performed, and the action of each compound to activate cytotoxic T cells was evaluated. Five experimental groups were established: (1) a group undergoing TS alone, (2) a group undergoing TS followed by application of HSVgpB, (3) a group undergoing TS followed by application of HSVgpB and Compound A-(1), (4) a group undergoing TS followed by application of HSVgpB and Compound L-(1), and (5) a group undergoing TS followed by application of HSVgpB and Compound M-(1).
Note that the herpes simplex virus-specific antigen peptide HSVgpB was synthesized on the basis of the partial sequence shown by SEQ ID NO. 2 (Virology, Vol. 195, pp. 62-70, (1993)) (ProImmune Company).

Compound: COCc1cccc(C[C@H](O)/C=C/[C@H]2[C@H](O)CC(=O)[C@@H]2SCCCSCC(=O)O)c1 [Compound A-(1), 11α,15α,-dihydroxy-9-oxo-16-(3-methoxymethylphenyl)-17,18,19,20-tetranol-3,7-dithiaprost-13E-enoic acid]
- number of surviving individuals (B16 melanoma cells; day 16 after B16 melanoma cells inoculation, TS followed by Compound A-(1)): 10 animals
- number of surviving individuals (B16 melanoma cells; day 16 after B16 melanoma cells inoculation, TS followed by TRP-2 and Compound A-(1)): 10 animals
- number of surviving individuals (B16 melanoma cells; day 21 after B16 melanoma cells inoculation, TS followed by Compound A-(1)): 10 animals
- number of surviving individuals (B16 melanoma cells; day 21 after B16 melanoma cells inoculation, TS followed by TRP-2 and Compound A-(1)): 10 animals
- number of surviving individuals (B16 melanoma cells; day 24 after B16 melanoma cells inoculation, TS followed by Compound A-(1)): 10 animals
- number of surviving individuals (B16 melanoma cells; day 24 after B16 melanoma cells inoculation, TS followed by TRP-2 and Compound A-(1)): 10 animals
- number of surviving individuals (B16 melanoma cells; day 27 after B16 melanoma cells inoculation, TS followed by Compound A-(1)): 7 animals
- number of surviving individuals (B16 melanoma cells; day 27 after B16 melanoma cells inoculation, TS followed by TRP-2 and Compound A-(1)): 10 animals
- number of surviving individuals (B16 melanoma cells; day 29 after B16 melanoma cells inoculation, TS followed by Compound A-(1)): 7 animals
- number of surviving individuals (B16 melanoma cells; day 29 after B16 melanoma cells inoculation, TS followed by TRP-2 and Compound A-(1)): 10 animals
- number of surviving individuals (B16 melanoma cells; day 31 after B16 melanoma cells inoculation, TS followed by Compound A-(1)): 7 animals
- number of surviving individuals (B16 melanoma cells; day 31 after B16 melanoma cells inoculation, TS followed by TRP-2 and Compound A-(1)): 10 animals
- number of surviving individuals (B16 melanoma cells; day 33 after B16 melanoma cells inoculation, TS followed by Compound A-(1)): 7 animals
- number of surviving individuals (B16 melanoma cells; day 33 after B16 melanoma cells inoculation, TS followed by TRP-2 and Compound A-(1)): 10 animals
- number of surviving individuals (B16 melanoma cells; day 35 after B16 melanoma cells inoculation, TS followed by Compound A-(1)): 2 animals
- number of surviving individuals (B16 melanoma cells; day 35 after B16 melanoma cells inoculation, TS followed by TRP-2 and Compound A-(1)): 10 animals
- number of surviving individuals (B16 melanoma cells; day 37 after B16 melanoma cells inoculation, TS followed by Compound A-(1)): 2 animals
- number of surviving individuals (B16 melanoma cells; day 37 after B16 melanoma cells inoculation, TS followed by TRP-2 and Compound A-(1)): 10 animals
- number of surviving individuals (B16 melanoma cells; day 38 after B16 melanoma cells inoculation, TS followed by Compound A-(1)): 2 animals
- number of surviving individuals (B16 melanoma cells; day 38 after B16 melanoma cells inoculation, TS followed by TRP-2 and Compound A-(1)): 10 animals
- number of surviving individuals (B16 melanoma cells; day 40 after B16 melanoma cells inoculation, TS followed by Compound A-(1)): 0 animals
- number of surviving individuals (B16 melanoma cells; day 40 after B16 melanoma cells inoculation, TS followed by TRP-2 and Compound A-(1)): 8 animals
- number of surviving individuals (B16 melanoma cells; day 42 after B16 melanoma cells inoculation, TS followed by Compound A-(1)): 0 animals
- number of surviving individuals (B16 melanoma cells; day 42 after B16 melanoma cells inoculation, TS followed by TRP-2 and Compound A-(1)): 8 animals
- number of surviving individuals (B16 melanoma cells; day 44 after B16 melanoma cells inoculation, TS followed by Compound A-(1)): 0 animals
- number of surviving individuals (B16 melanoma cells; day 44 after B16 melanoma cells inoculation, TS followed by TRP-2 and Compound A-(1)): 5 animals
- number of surviving individuals (B16 melanoma cells; day 46 after B16 melanoma cells inoculation, TS followed by Compound A-(1)): 0 animals
- number of surviving individuals (B16 melanoma cells; day 46 after B16 melanoma cells inoculation, TS followed by TRP-2 and Compound A-(1)): 4 animals
- number of surviving individuals (B16 melanoma cells; day 48 after B16 melanoma cells inoculation, TS followed by Compound A-(1)): 0 animals
- number of surviving individuals (B16 melanoma cells; day 48 after B16 melanoma cells inoculation, TS followed by TRP-2 and Compound A-(1)): 2 animals
- number of surviving individuals (B16 melanoma cells; day 50 after B16 melanoma cells inoculation, TS followed by Compound A-(1)): 0 animals
- number of surviving individuals (B16 melanoma cells; day 50 after B16 melanoma cells inoculation, TS followed by TRP-2 and Compound A-(1)): 2 animals
- number of surviving individuals (B16 melanoma cells; day 52 after B16 melanoma cells inoculation, TS followed by Compound A-(1)): 0 animals
- number of surviving individuals (B16 melanoma cells; day 52 after B16 melanoma cells inoculation, TS followed by TRP-2 and Compound A-(1)): 2 animals
- number of surviving individuals (B16 melanoma cells; day 55 after B16 melanoma cells inoculation, TS followed by Compound A-(1)): 0 animals
- number of surviving individuals (B16 melanoma cells; day 55 after B16 melanoma cells inoculation, TS followed by TRP-2 and Compound A-(1)): 2 animals
- number of surviving individuals (B16 melanoma cells; day 57 after B16 melanoma cells inoculation, TS followed by Compound A-(1)): 0 animals
- number of surviving individuals (B16 melanoma cells; day 57 after B16 melanoma cells inoculation, TS followed by TRP-2 and Compound A-(1)): 1 animals
- Ratio of TRP-2-specific CTLs (TRP-2-specific CTLs; TS followed by application of TRP-2 and Compound A-(1)): 0.63
- Ratio of TRP-2-specific CTLs (TRP-2-specific CTLs; TS followed by application of the test substance alone): 0.55
- ratio of TRP-2-specific CTLs in cervical lymph nodes compared with the group undergoing TS alone (TRP-2-specific CTLs; TS followed by application of Compound A-(1)): increased
- Ratio of HSVgpB-specific CTLs (HSVgpB-specific CTLs): 0.41
